Patent US20120010148A1, “COMBINATION THERAPIES USING NAP” (ALLON THERAPEUTICS INC., priority 2008, published 2012)
“Also recorded” adds a separate entry of the source.

Legend:
[1] = test system: Rat pheochromocytoma cells (PC12); test: Serum-deprivation survival of PC12 cells, MTS viability assay; assay type: cell-based
Experimental: The survival-promoting effects of galantamine (an acetylcholine-esterase inhibitor, or AcEI), NAP, and their combinatorial treatment were assessed in cell cultures. Cell culture method was adapted from Calderon et al., J Neurosci Res 56, 620-631 (1999).
Rat pheochromocytoma cells (PC12) were grown in Dulbecco's modified Eagle's medium (DMEM) supplemented with 8% fetal calf serum, 8% horse donor serum, 2 mm L-glutamine, and 1% penicillin-streptomycin solution.
For the experiments, cells were harvested, re-suspended, and seeded in 96-well plates at a concentration of 1.5×10^4 cells/well. Cells were pretreated with NAP and Galantamine [Galantamine (0.1, 0.5, 1, 10 μM); NAP (10^−8M, 10^−1° M, 10^−12M, 10^−15M)] 3 hours prior to serum deprivation and during serum deprivation. The assay for cell viability was performed 48 hours after serum deprivation. Calibration method is described below.
Culture medium was replaced by fresh medium without serum, containing NAP and Galantamine. Cells were incubated for 48 hours and then subject to MTS viability assay.
PC12 cells were seeded and treated as mentioned above without any drugs for 24 hours, 48 hours, and 72 hours. MTS results are represented by the percentage of viable cells from the serum deprived treatment vs. control treatment.

[2] = test system: STOP+/− mice; test: Morris water maze and probe test; assay type: in vivo, mouse
Experimental: The NAP vehicle solution (termed DD), included the following ingredients (per milliliter): 7.5 mg of NaCl, 1.7 mg of citric acid monohydrate, 3 mg of disodium phosphate dihydrate, and 0.2 mg of benzalkonium chloride solution (50%) (Alcalay R N et al., Neurosci Lett, 361(1-3): 128-131 (2004)). NAP or vehicle solution (DD) was administered to mice hand-held in a semisupine position with nostrils facing the investigator. A pipette tip was used to administer 2.5 μl/nostril. The mouse was hand-held until the solution was totally absorbed (10 s). […]
The test measures the ability of rodents to learn and remember, by spatial navigation, the place of the hidden platform in a round water maze. […] Here, mice were monitored on five consecutive swimming days. […] The time required to reach the platform during the first daily test (indicative of learning and intact reference memory) and the time required to reach the platform in the second trial [indicative of short-term (working) memory] were measured and recorded separately. […] The platform was removed from the maze and the time spent by the mice in the pool's quadrant where the platform used to be was recorded. […] Mice were released into the water and the time taken to find the platform was recorded (maximum 60 seconds). […]

[3] = test system: STOP+/− mice; test: Open field locomotor activity; assay type: in vivo, mouse
Experimental: The NAP vehicle solution (termed DD), included the following ingredients (per milliliter): 7.5 mg of NaCl, 1.7 mg of citric acid monohydrate, 3 mg of disodium phosphate dihydrate, and 0.2 mg of benzalkonium chloride solution (50%) (Alcalay R N et al., Neurosci Lett, 361(1-3): 128-131 (2004)). NAP or vehicle solution (DD) was administered to mice hand-held in a semisupine position with nostrils facing the investigator. A pipette tip was used to administer 2.5 μl/nostril. The mouse was hand-held until the solution was totally absorbed (10 s). […] STOP+/− male mice (5 months old, n=4) received daily doses of 10 mg/kg intraperitoneal injection (IP) of clozapine (5 days a week), for the duration of the experiment (7 weeks). A control STOP+/− male mice group (5 month old, n=3) were injected daily with saline. NAP treatment included daily (5 days a week) intranasal administrations (0.5 μg/5 μl/mouse/day) for 7-10 weeks. For intranasal administration, the peptide was dissolved in the vehicle solution (termed DD) described above. Each experimental group included 10-12 mice, 4-12 month-old; mean age 6 months). […]
Locomotor activity was measured in 5 consecutive sessions, 3 minutes each and the mean path length in cm of each mouse in the 3 minute sessions per the entire 15 minute period of observation in open field (80 cm diameter) was determined. […]

[4] = test system: ischemic injury; details: after ischemic injury; cited from earlier work
[5] = test system: peripheral blood mononuclear cells (PBMCs); details: cited from earlier work

CC[C@H](C)[C@H](NC(=O)[C@H](CO)NC(=O)[C@@H](NC(=O)[C@@H]1CCCN1C(=O)[C@H](C)NC(=O)[C@@H](N)CC(N)=O)C(C)C)C(=O)N1CCC[C@H]1C(=O)N[C@@H](CCC(N)=O)C(=O)O [NAP]
protection against extensive cell death ([1]; >40% cell death, compared against cultures supplemented with serum, FIG. 7): Neither NAP nor galantamine protected
protection against serum deprivation ([1]; NAP alone, FIG. 5): provided protection
probe test, time in area where the platform used to be (spatial memory) ([2]; Example 3, STOP+/− male mice, 5th day, NAP intranasal 0.5 μg/mouse/day or clozapine IP, FIG. 10): significantly improved the performance; also recorded: significantly more time
Morris water maze learning and memory ([2]; Example 4, STOP+/− mice, NAP 0.5 microgram/mouse/day, clozapine 3 mg/kg/day, FIG. 13): protection against adverse clozapine effects on learning
hyper-locomotion (path length) in open field ([3]; Example 3, STOP+/− male mice, NAP intranasal 0.5 μg/mouse/day or clozapine 10 mg/kg IP, FIG. 8): significantly decreased the hyper-locomotion; also recorded: significantly reduced the path length
open field activity ([3]; Example 4, STOP+/− mice, NAP intranasal 0.5 microgram/mouse/day, clozapine injection 3 mg/kg/day, FIG. 11): also reduced the activity
infarct volume and motor function deficits [4]: reduced infarct volume and motor function deficits
anti-CD3-/anti-CD28-stimulated proliferation [5]: suppressed
expression of CD69, CD154 and IFN-γ [5]: decreased the expression
